This experiment has as its target T1, human GPR119 (Homo sapiens, UniProt Q8TDV5).
T1 construct: expressed in transfected cells
T1 sequence (Q8TDV5 1-335): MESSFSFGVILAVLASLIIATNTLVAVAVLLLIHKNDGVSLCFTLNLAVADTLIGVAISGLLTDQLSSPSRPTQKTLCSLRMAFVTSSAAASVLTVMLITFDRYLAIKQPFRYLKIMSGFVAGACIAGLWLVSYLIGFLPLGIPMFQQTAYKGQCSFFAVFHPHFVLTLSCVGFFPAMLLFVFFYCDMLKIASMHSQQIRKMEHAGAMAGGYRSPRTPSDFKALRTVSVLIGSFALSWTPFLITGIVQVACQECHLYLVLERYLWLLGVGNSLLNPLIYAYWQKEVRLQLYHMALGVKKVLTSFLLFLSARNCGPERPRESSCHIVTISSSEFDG
Description: AlphaScreen cAMP assay in Min-6/hGPR119 cells (activation of GPR119, stimulation of intracellular cAMP). The class given is cell-based. The settings on record: MIN6 cells stably transfected with human GPR119; 45 min incubation at room temperature; cAMP by AlphaScreen. Here is the method: The compounds of formula I according to the invention modulate the activity of the G-protein-coupled receptor GPR119. The effect of the compounds on the activation of GPR119 and on the stimulation of intracellular cAMP concentration is determined using the AlphaScreen cAMP Assay Kit (Cat. No. #6760625R) made by PerkinElmer.
MIN6 cells [Miyazaki J et al., Endocrinology. 1990 July; 127(1):126-32] are stably transfected with an expression vector for human GPR119 cDNA (Acc. No. NP_848566). Min-6/hGPR119 cells are cultured in DMEM, 10% FBS, 50 μM β-mercaptoethanol, 0.3 mg/mL Geniticin, 2 mM GlutaMAX at 37° C., 5% CO2. For the assay, the cells are seeded in Optiplates (white, 384-well, 160W-barcoded, TC, sterile with lid, Cat. No. #6007688 (Perkin Elmer); 10000 cells/well; 50 μL). The plates covered with lids are then incubated for 24 hours at 37° C., 5% CO2. After the medium is aspirated from the wells completely, 10 μl of the test compound are added, the compounds are diluted using stimulating buffer (140 mM NaCl, 3.6 mM KCl, 0.5 mM NaH2PO4, 0.5 mM MgSO4, 1.5 mM CaCl2, 10 mM Hepes, 5 mM NaHCO3; pH 7.4. 0.5 mM IBMX and 0.1% BSA, the final DMSO concentration is 1%). After 45 minutes incubation at room temperature (approx. 20° C.), the cAMP concentrations are determined using the AlphaScreen cAMP Assay Kit (Cat. No. #6760625R from PerkinElmer).
Background: Alpha assays give light when donor and acceptor beads are brought close together.
Turning to `CC(C)(C)OC(=O)N1CCC(c2cc3cc(-c4ccc(S(C)(=O)=O)cc4)ncc3o2)CC1` [Example 1, 4-[5-(4-Methanesulfonyl-phenyl)-furo[2,3-c]pyridin-2-yl]-piperidine-1-carboxylic acid tert-butyl ester], the EC50 (as a rule, the concentration that produces a half-maximal response) was determined as 58 nM.

For the compound `CC(C)(C)OC(=O)N1CCC(c2cc3cc(-c4ccc(S(C)(=O)=O)c(F)c4)ncc3o2)CC1` [Example 2, 4-[5-(3-Fluoro-4-methanesulfonyl-phenyl)-furo[2,3-c]pyridin-2-yl]-piperidine-1-carboxylic acid tert-butyl ester], the EC50 is 62 nM. The value for `CC(C)(C)OC(=O)N1CCC(c2cc3cc(-c4ccc(S(C)(=O)=O)cc4F)ncc3o2)CC1` [Example 3, 4-[5-(2-Fluoro-4-methanesulfonyl-phenyl)-furo[2,3-c]pyridin-2-yl]-piperidine-1-carboxylic acid tert-butyl ester] was 9 nM. The value for `CC(C)(C)OC(=O)N1CCC(c2cc3cc(-c4ccc(NS(C)(=O)=O)cc4)ncc3o2)CC1` [Example 4, 4-[5-(4-Methanesulfonylamino-phenyl)-furo[2,3-c]pyridin-2-yl]-piperidine-1-carboxylic acid tert-butyl ester] was 121 nM; that for `CC(C)(C)OC(=O)N1CCC(c2cc3cc(-c4ccc(C#N)c(F)c4)ncc3o2)CC1` [Example 5, 4-[5-(4-Cyano-3-fluoro-phenyl)-furo[2,3-c]pyridin-2-yl]-piperidine-1-carboxylic acid tert-butyl ester] was 263 nM. For `CCNC(=O)c1ccc(-c2cc3cc(C4CCN(C(=O)OC(C)(C)C)CC4)oc3cn2)cc1` [Example 6, 4-[5-(4-Ethylcarbamoyl-phenyl)-furo[2,3-c]pyridin-2-yl]-piperidine-1-carboxylic acid tert-butyl ester], the EC50 was 45 nM. The same measure for `CC(C)(C)OC(=O)N1CCC(c2cc3cc(-c4ccc(C(N)=O)cc4F)ncc3o2)CC1` [Example 7, 4-[5-(2-Fluoro-4-aminocarbonyl-phenyl)-furo[2,3-c]pyridin-2-yl]-piperidine-1-carboxylic acid tert-butyl ester]: 108 nM; for `CC(C)(C)OC(=O)N1CCC(c2cc3cc(-c4ccc(C#N)cc4F)ncc3o2)CC1` [Example 8, 4-[5-(4-Cyano-2-fluoro-phenyl)-furo[2,3-c]pyridin-2-yl]-piperidine-1-carboxylic acid tert-butyl ester]: 281 nM. The same measure for `CC(C)(C)OC(=O)N1CCC(c2cc3cc(-c4ccc(C(=O)OCc5ccccc5)cc4)ncc3o2)CC1` [Example 9, 4-[5-(4-Benzyloxycarbonyl-phenyl)-furo[2,3-c]pyridin-2-yl]-piperidine-1-carboxylic acid tert-butyl ester]: 567 nM.

Compound `CC(C)(C)OC(=O)N1CCC(c2cc3cc(-c4cnco4)ncc3o2)CC1` [Example 10, 4-(5-Oxazol-5-yl-furo[2,3-c]pyridin-2-yl)-piperidine-1-carboxylic acid tert-butyl ester] had an EC50 of 592 nM. The same measure for `CC(C)(C)OC(=O)N1CCC(c2cc3cc(-c4ccncc4)ncc3o2)CC1` [Example 11, 4-(5-Pyridin-4-yl-furo[2,3-c]pyridin-2-yl)-piperidine-1-carboxylic acid tert-butyl ester]: 310 nM; for `CC(C)(C)OC(=O)N1CCC(c2cc3cc(-c4ccc(CS(C)(=O)=O)cc4)ncc3o2)CC1` [Example 12, 4-[5-(4-Methanesulfonylmethyl-phenyl)-furo[2,3-c]pyridin-2-yl]-piperidine-1-carboxylic acid tert-butyl ester]: 105 nM. The value for `CC(C)(C)OC(=O)N1CCC(c2cc3cc(N4CCN(S(C)(=O)=O)CC4)ncc3o2)CC1` [Example 13, 4-[5-(4-Methanesulfonyl-piperazin-1-yl)-furo[2,3-c]pyridin-2-yl]-piperidine-1-carboxylic acid tert-butyl ester] was 82 nM; that for `CC(C)(C)OC(=O)N1CCC(c2cc3cc(C4=CCN(S(C)(=O)=O)CC4)ncc3o2)CC1` [Example 14, 4-[5-(1-Methanesulfonyl-1,2,3,6-tetrahydro-pyridin-4-yl)-furo[2,3-c]pyridin-2-yl]-piperidine-1-carboxylic acid tert-butyl ester] was 9 nM; that for `CC(C)(C)OC(=O)N1CCC(c2cc3cc(-c4ccncc4F)ncc3o2)CC1` [Example 15, 4-[5-(3-Fluoro-pyridin-4-yl)-furo[2,3-c]pyridin-2-yl]-piperidine-1-carboxylic acid tert-butyl ester] was 233 nM. On to `CCc1cnc(N2CCC(c3cc4cc(-c5ccc(S(C)(=O)=O)cc5F)ncc4o3)CC2)nc1` [Example 16, 2-[1-(5-Ethyl-pyrimidin-2-yl)-piperidin-4-yl]-5-(2-fluoro-4-methanesulfonyl-phenyl)-furo[2,3-c]pyridine], for which the EC50 turned out to be 64 nM.

Turning to `CS(=O)(=O)c1ccc(-c2cc3cc(C4CCN(CC5(C(F)(F)F)CC5)CC4)oc3cn2)c(F)c1` [Example 17, 5-(2-Fluoro-4-methanesulfonyl-phenyl)-2-[1-(1-trifluoromethyl-cyclopropylmethyl)-piperidin-4-yl]-furo[2,3-c]pyridine], the EC50 was determined as 51 nM. The same measure for `CC(C)(F)CN1CCC(c2cc3cc(-c4ccc(S(C)(=O)=O)cc4F)ncc3o2)CC1` [Example 18, 5-(2-Fluoro-4-methanesulfonyl-phenyl)-2-[1-(2-fluoro-2-methyl-propyl)-piperidin-4-yl]-furo[2,3-c]pyridine]: 79 nM; for `CC(C)OC(=O)N1CCC(c2cc3cc(-c4ccc(S(C)(=O)=O)cc4F)ncc3o2)CC1` [Example 19, 4-[5-(2-Fluoro-4-methanesulfonyl-phenyl)-furo[2,3-c]pyridin-2-yl]-piperidine-1-carboxylic acid isopropyl ester]: 12 nM. The same measure for `CC1(OC(=O)N2CCC(c3cc4cc(-c5ccc(S(C)(=O)=O)cc5F)ncc4o3)CC2)CC1` [Example 20, 4-[5-(2-Fluoro-4-methanesulfonyl-phenyl)-furo[2,3-c]pyridin-2-yl]-piperidine-1-carboxylic acid 1-methyl-cyclopropyl ester]: 13 nM; for `CC(C)OC(=O)N1CCC(c2cc3cc(C4=CCN(S(C)(=O)=O)CC4)ncc3o2)CC1` [Example 21, 4-[5-(1-Methanesulfonyl-1,2,3,6-tetrahydro-pyridin-4-yl)-furo[2,3-c]pyridin-2-yl]-piperidine-1-carboxylic acid isopropyl ester]: 19 nM; for `CC1(OC(=O)N2CCC(c3cc4cc(C5=CCN(S(C)(=O)=O)CC5)ncc4o3)CC2)CC1` [Example 22, 4-[5-(1-Methanesulfonyl-1,2,3,6-tetrahydro-pyridin-4-yl)-furo[2,3-c]pyridin-2-yl]-piperidine-1-carboxylic acid 1-methyl-cyclopropyl ester]: 10 nM. For `CS(=O)(=O)N1CC=C(c2cc3cc(C4CCN(c5ccc(C(F)(F)F)cn5)CC4)oc3cn2)CC1` [Example 23, 4-[5-(1-Methanesulfonyl-1,2,3,6-tetrahydro-pyridin-4-yl)-furo[2,3-c]pyridin-2-yl]-5′-trifluoromethyl-3,4,5,6-tetrahydro-2H-[1,2′]bipyridinyl], it took 86 nM to reach a half-maximal effect (EC50). Against the preceding compound, the EC50 is about 8.6-fold higher. The same measure for `CS(=O)(=O)N1CC=C(c2cc3cc(C4CCN(CC5(C(F)(F)F)CC5)CC4)oc3cn2)CC1` [Example 24, 5-(1-Methanesulfonyl-1,2,3,6-tetrahydro-pyridin-4-yl)-2-[1-(1-trifluoromethyl-cyclopropylmethyl)-piperidin-4-yl]-furo[2,3-c]pyridine]: 28 nM; for `CS(=O)(=O)N1CC=C(c2cc3cc(C4CCN(c5ncc(Cl)cn5)CC4)oc3cn2)CC1` [Example 25, 2-[1-(5-Chloro-pyrimidin-2-yl)-piperidin-4-yl]-5-(1-methanesulfonyl-1,2,3,6-tetrahydro-pyridin-4-yl)-furo[2,3-c]pyridine]: 41 nM.

The compound `CS(=O)(=O)N1CC=C(c2cc3cc(C4CCN(c5nnc(C(F)(F)F)s5)CC4)oc3cn2)CC1` [Example 26, 5-(1-Methanesulfonyl-1,2,3,6-tetrahydro-pyridin-4-yl)-2-[1-(5-trifluoromethyl-[1,3,4]thiadiazol-2-yl)-piperidin-4-yl]-furo[2,3-c]pyridine] registered an EC50 of 18 nM.

Compound `CC(C)(C)OC(=O)N1CCC(C)(c2cc3cc(-c4ccc(S(C)(=O)=O)cc4)ncc3o2)CC1` [Example 27, 4-[5-(4-Methanesulfonyl-phenyl)-furo[2,3-c]pyridin-2-yl]-4-methyl-piperidine-1-carboxylic acid tert-butyl ester] returned an EC50 of 140 nM.

For the origin of these results see patent US9012456B2, “Compounds, pharmaceutical compositions and uses thereof” (Boehringer Ingelheim International GmbH, priority 2012, dated 2015).
